Data reported in the supplement of paper PMC10307832.

Legend:
Experiment in all cases: relative viability (nuclei count vs DMSO), 5 days (fraction); higher = more cells survive
[1] = compound: C[As](C)SC[C@H](NC(=O)CC[C@H](N)C(=O)O)C(=O)NCC(=O)O [Darinaparsin] + Cc1nc(Nc2ncc(C(=O)Nc3c(C)cccc3Cl)s2)cc(N2CCN(CCO)CC2)n1 [Dasatinib] (partner 0.075 µM)
How it was run: (§1)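 Medians of duplicate plates are given as relative viability. That measure is the nuclei count in treated wells divided by the count in vehicle wells. Counts were taken on 4× images of lung cancer cell lines in 1536-well plates, 5 days after pin-tool dosing the day after seeding with one drug alone or a fixed anchor-drug dose plus five library-drug doses (not always all listed) in √10 steps.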

[2] = compound: C[As](C)SC[C@H](NC(=O)CC[C@H](N)C(=O)O)C(=O)NCC(=O)O [Darinaparsin] + Cc1nc(NC(=O)N2CCC[C@H]2C(N)=O)sc1-c1ccnc(C(C)(C)C(F)(F)F)c1 [Alpelisib] (partner 2 µM)
How it was run: as §1

[3] = compound: C1CC2=C(C1)C=C(C=C2)OC3=NC(=C4C(=N3)N(C=N4)CC5=CC=C(C=C5)C6=CC=CC=C6)N[C@@H](CC7=CC=CC=C7)CO [QS11] + C[C@@H](Oc1cc(-c2cnn(C3CCNCC3)c2)cnc1N)c1c(Cl)ccc(F)c1Cl [Crizotinib] (partner 1 µM)
How it was run: as §1

[4] = compound: CC1=C(C=C(C=C1)NC(=O)C2=CC(=CC=C2)C(C)(C)C#N)NC3=CC4=C(C=C3)N=CN(C4=O)C [AZ628] + O=C(c1cc(Cc2n[nH]c(=O)c3ccccc23)ccc1F)N1CCN(C(=O)C2CC2)CC1 [Olaparib] (partner 8 µM)
How it was run: as §1

LCLC-97TM1 was tested, and the relative viability ([1]; first compound 0.08 µM) was 0.922, the relative viability ([1]; first compound 0.8 µM) was 0.664 and the relative viability ([1]; first compound 2.53 µM) was 0.615. For the same cell line, the relative viability ([1]; first compound 8 µM) was 0.98, the relative viability ([2]; first compound 0.08 µM) was 0.244 and the relative viability ([2]; first compound 0.8 µM) was 0.237. The relative viability ([2]; first compound 2.53 µM) was 0.19, the relative viability ([2]; first compound 8 µM) was 0.26 and the relative viability ([3]; first compound 0.08 µM) was 0.275. It also gave a relative viability ([3]; first compound 0.253 µM) of 0.351, a relative viability ([3]; first compound 0.8 µM) of 0.392 and a relative viability ([3]; first compound 2.53 µM) of 0.403. The relative viability ([3]; first compound 8 µM) was 0.355, the relative viability ([4]; first compound 0.08 µM) was 0.517 and the relative viability ([4]; first compound 0.253 µM) was 0.371. For the same cell line, the relative viability ([4]; first compound 0.8 µM) was 0.356, the relative viability ([4]; first compound 2.53 µM) was 0.289 and the relative viability ([4]; first compound 8 µM) was 0.202.
